Data published in US6572880B2, “Methods and transdermal compositions for pain relief” (priority 1996, dated 2003).
“Also recorded” adds a separate entry of the source. Where a name gives a salt, the structure may show the parent alone.

Legend:
[1] = blood serum; cited from earlier work
[2] = cited from earlier work
[3] = in vivo
Experimental: A dosage of 40 mg per day was self-administered by a patient by application to the skin, for a period of at least 1 hour.
Sertraline (Zoloft) gel was prepared, according to the procedures of example 9. A dosage of 100 mg per day was self-administered by a patient by application to the skin, for a period of at least 1 hour.
A dosage of 20 mg per day was self-administered by a patient by application to the skin, for a period of at least 1 hour.
Carbamazepine (Tegretol) gel was prepared, according to the procedures of example 4. A dosage of 400 mg per day was self-administered by a patient by application to the skin, for a period of at least 1 hour.
(§1) Carbamazepine (Tegretol) gel was prepared, according to the procedures of example 4. A dosage of 200 mg per day was self-administered by a patient by application to the skin, for a period of at least 1 hour.
Sertraline (Zoloft) gel was prepared, according to the procedures of example 9. A dosage of 50 mg per day was self-administered by a patient by application to the skin, for a period of at least 1 hour.
as §1
A dosage of 100 mg per day was selfadministered by a patient by application to the skin, for a period of at least 1 hour.
A dosage of 80-160 mg per day was self administered by a person by application to the skin, for a period of at least 1 hour. […] The dosage was then increased to 160 mg per day and administered by the same method.
A dosage of 80-160 mg/day was self administered by a person by application to the skin, for a period of at least 1 hour. […] The dosage was then increased to 160 mg per day and administered by the same method.
A dosage of 500-1000 mg was self administered by two male patients. Administration was by application to the skin, for a period of at least one hour.

[4] = patient-reported pain relief after transdermal application to site of pain; assay type: in vivo, human; conditions: for overall assessment of pain relief when administered transdermally: conclusion from the patient results
Text: Compositions according the examples 45 through 47, 53, 55 were transdermally applied to numerous patients, for the purpose of treating pain including as described in other examples herein, with the results summarized in Table I below.

[5] = skin irritation and side effects reported on transdermal administration; assay type: in vivo, human; conditions: for overall assessment of side effects when administered transdermally: conclusion from the patient results
Experimental: Preferably, a gel preparation is applied to the skin at the site or sites of pain. Patients can be evaluated by means of a structured evaluation form, e.g., completed at a frequency of at least one time per week. Evaluation of patients are for the present symptoms as well as any side effects from currently administered medications. This makes it possible to note changes on an ongoing basis.
Patients in the examples above were evaluated by means of a structured evaluation form depicted in FIG. 1, which was completed at a frequency of at least one time per week for each patient receiving transdermal medication according to the present invention. The patients were evaluated both for all present psychiatric symptoms as well as any side effects from currently-administered medications.

[6] = summary of Table I, best result per patient

SMILES	typical reference levels [1]	solubility in water [2]	transdermal absorption as judged from blood level [3]	overall assessment of pain relief when administered transdermally [4]	overall assessment of side effects when administered transdermally [5]	also measured
CN[C@H]1CC[C@@H](c2ccc(Cl)c(Cl)c2)c2ccccc21 [Sertraline hydrochloride]	30 to 200 ng/mL	slightly soluble	do not appear to be absorbed well or reliably	–	–	solubility in ethanol [2]: sparingly soluble; solubility in isopropyl alcohol [2]: slightly soluble
CNCCC(Oc1ccc(C(F)(F)F)cc1)c1ccccc1 (centres unmarked) [Fluoxetine hydrochloride]	50 to 480 ng/mL	–	–	–	–	–
NC(=O)N1c2ccccc2C=Cc2ccccc21 [Carbamazepine]	–	practically insoluble	good absorption	positive effects	appears to cause a rash in at least some patients	typical therapeutic levels / therapeutic reference range [1]: 4 to 10 µg/mL; solubility in alcohol and in acetone [2]: soluble
CCCC(CCC)C(=O)O [Valproic acid]	–	–	do not appear to be absorbed well or reliably	–	–	typical therapeutic levels / therapeutic reference range [1]: 50 to 150 µg/mL; skin irritation ([5]; application to the skin): appears to cause skin irritation in some patients
COc1ccccc1OCC(O)CO (centres unmarked) [Guaifenesin]	–	–	–	benefit as an adjunctive treatment, of painful spasticity	–	–
CN(C)CCC=C1c2ccccc2COc2ccccc21 [doxepin]	–	–	–	effective pain relief medication	substantially free of side effects	overall assessment of pain relief when administered transdermally ([4]; listed as Doxepin): about three times the positive response rate; also recorded: substantially more effective than amitriptyline; percent reported pain relief: Major [4, 6]: 23.1%; percent reported pain relief: Mild [4, 6]: 7.7%; percent reported pain relief: Mild-moderate [4, 6]: 7.7%; percent reported pain relief: Total [4, 6]: 7.7%; percent reported pain relief: moderate [4, 6]: 53.8%
NCC1(CC(=O)O)CCCCC1 [Gabapentin]	–	–	–	–	free of side effects	–
Fc1ccc([C@@H]2CCNC[C@H]2COc2ccc3c(c2)OCO3)cc1 [Paroxetine hydrochloride]	49 ± 26 ng/mL	–	–	–	–	–
CC(NC(C)(C)C)C(=O)c1cccc(Cl)c1 (centres unmarked) [Buproprion]	–	highly soluble	poor or equivocal absorptions and results	–	–	–
CN(C)CCC=C1c2ccccc2CCc2ccccc21 [amitriptyline]	–	–	–	limited pain relief	–	–
